Measured values reported in patent US20120065126A1, “Pharmaceutical Compositions Containing Antifungal Peptides” (BASF SE, priority 2009, published 2012).

What was measured:
[1] = system: Malassezia furfur strain DSM 6170; test: Long-term stability of P18 solution, growth test (CFU); format: cell-based
Method: The studies described hereinafter were conducted on the Malassezia furfur strain DSM 6170.
Since storage may be necessary over a prolonged period, a 1 mM P18 peptide solution (P18 sequence H-KWKLFKKIPKFLHLAKKF-NH2) was subsequently stored at 37° C. over 12 weeks, and the antifungal activity of the stored solution on Malassezia furfur was compared with the activity of a freshly made up 1 mM P18 peptide solution. This was done using a growth test, which was conducted as follows:
Growth medium: M472 Pityrosporum medium according to DSMZ 40 g/1 malt extract 20 g/l ox bile
The growth test was effected as follows: a shake culture containing M472 Pityrosporum medium was inoculated with M. furfur and incubated with shaking at 30° C. and 200 rpm overnight.
A 96-well microtiter plate was filled with 100 μl per well of M472 Pityrosporum medium and inoculated with M. furfur suspension from the overnight culture. The M. furfur suspension was adjusted at the start of the experiment to an optical density, measured at 600 nm, of 0.02. The concentrates of the inhibitor solutions were 1 mM in water.
The following growth was compared: • M. furfur suspension without addition of an inhibitor • M. furfur suspension and addition of an aqueous fresh P18 solution with a final concentration of 50 μM • M. furfur suspension and addition of an aqueous fresh P18 solution with a final concentration of 25 μM • M. furfur suspension and addition of a P18 solution which had been stored at 37° C. for 12 weeks with a final concentration of 50 μM • M. furfur suspension and addition of a P18 solution which had been stored at 37° C. for 12 weeks with a final concentration of 25 μM
The microtiter plate was incubated with shaking at 30° C.
The growth was observed by measuring the optical density over 24 hours. Subsequently, the colony forming units (CFU) were determined by streaking 1 μl and 5 μl of each of the suspensions and, after incubation over 6 days, counting the colonies. The CFU was determined in order to rule out any influence of the biphasic medium, and also the growth form of M. furfur, on the optical density. The experiments were conducted at least in triple determinations.

[2] = system: M. furfur; test: Kinetics of the effect of P18 in the presence of a shampoo base formulation (CFU); format: cell-based, Malassezia furfur; settings: 10% (v/v) shampoo base formulation 31-3; 0.23-2.3 g/l; 5 min to 24 h
Method: The experiments were conducted as follows: [table] The Texapon NSO and Tego Betain L7 components were mixed and dissolved. NaOH was used to adjust the pH to pH 6-7. The growth test was effected as follows: a shake culture containing […]. furfur and incubated with shaking at 30° C. and 200 rpm overnight. A 96-well microtiter plate was filled with 100 μl per well of […]. furfur suspension from the overnight culture. The M. furfur suspension was adjusted at the start of the experiment to an optical density, measured at 600 nm, of 0.1. 10% (v/v) of shampoo base formulation 31-3 was added to the M. furfur suspension. P18 peptide was dissolved with a concentration of 230 g/l in water. […] The microtiter plate was incubated with shaking at 30°.

[3] = system: M. furfur DSM 6170; test: Comparison of the efficacy of P18 and AFPP (CFU); format: cell-based, Malassezia furfur
Excerpt: WO 00/32220 describes the effect of the antifungal polypeptide AFPP from Aspergillus giganteus on the growth of Malassezia furfur.
In order to compare the effect of P18 (SEQ ID NO. 3; sequence: KWKLFKKIPKFLHLAKKF-NH2 (Bachem. AG, Switzerland)) with the effect of AFPP, AFPP was provided from the culture supernatant of the A. giganteus strain CBS 526.65 (Organobalance, Berlin). The purification was effected according to Theis et al. (Theis T., Wedde M., Meyer V., Stahl U. (2003) The antifungal protein from Aspergillus giganteus causes membrane permeabilization. Antimicrob. Agents Chemother. 47:588-593; Theis T., Marx F., Salvenmoser W., Stahl U., Meyer V. (2005) New insights into the target site and mode of action of the antifungal protein (AFP) of Aspergillus giganteus. Res Microbiol. 156:47-56.)
After replacing the buffer and concentration, a 2% (w/w) AFPP solution in phosphate buffer (10 mM sodium phosphate, pH 7.5, 100 mM NaCl) was obtained.
The P18 concentrate was also present as a 2% (w/w) solution in phosphate buffer.
Growth medium: M472 Pityrosporum medium according to DSMZ (German Collection of Microorganisms and Cell Cultures, Braunschweig, Germany) 40 g of malt extract (Becton, Dickinson and Company, Sparks, USA) 20 g of ox bile (Merck, Darmstadt, Germany)
The growth test was effected as follows: a shake culture containing M472 Pityrosporum medium was inoculated with M. furfur DSM 6170 (DSMZ) and incubated with shaking at 30° C. and 200 rpm overnight.
For each test mixture, a 1.5 ml reaction vessel was filled with Pityrosporum medium and inoculated with the M. furfur overnight culture to give a start OD of 0.1, measured at 600 nm.
The growth of the following test mixtures was monitored: • M. furfur suspension and addition of 30 μl of phosphate buffer (in order to rule out any influence of the phosphate buffer on the effect of the active peptides at a final concentration of 0.1%) • M. furfur suspension and addition of 60 μl of phosphate buffer (in order to rule out any influence of the phosphate buffer on the effect of the active peptides at a final concentration of 0.2%) • M. furfur suspension and addition of 90 μl of phosphate buffer (in order to rule out any influence of the phosphate buffer on the effect of the active peptides at a final concentration of 0.3%) • M. furfur suspension with a final P18 concentration of 0.1% in the reaction volume • M. furfur suspension with a final P18 concentration of 0.2% in the reaction volume • M. furfur suspension with a final P18 concentration of 0.3% in the reaction volume • M. furfur suspension with a final AFPP concentration of 0.1% in the reaction volume • M. furfur suspension with a final AFPP concentration of 0.2% in the reaction volume • M. furfur suspension with a final AFPP concentration of 0.3% in the reaction volume
The reaction volume was 600 μl in each case. The growth of M. furfur in the test mixtures was observed over a period of 24 hours. For this purpose, the mixtures were diluted 1:10 in M472 medium after 5 minutes, 20 minutes and 24 hours, and then 10 μl were plated out. The CFU (colony forming units) were determined by counting after incubation at 30° C. for 6 days.
The experiments were effected in double determination and were independently repeated at least once.

H-KWKLFKKIPKFLHLAKKF-NH2 [P18, H-KWKLFKKIPKFLHLAKKF-NH2]
Effect of storage on the activity of the solution ([1]; 1 mM P18 peptide solution, 37° C., 12 weeks): has not affected the activity | Colony forming units (CFU) ([1]; aqueous P18 solution (fresh), final conc. 25 μM, incubation 16-18 h): 5 ± 8 CFU | Colony forming units (CFU) ([1]; aqueous P18 solution (fresh), final conc. 25 μM, incubation 24 h): 1 ± 2 CFU | Colony forming units (CFU) ([1]; aqueous P18 solution (fresh), final conc. 50 μM, incubation 16-18 h): 0 ± 0 CFU | Colony forming units (CFU) ([1]; aqueous P18 solution (fresh), final conc. 50 μM, incubation 24 h): 1 ± 1 CFU | Colony forming units (CFU) ([1]; aqueous P18 solution stored at 37° C. for 12 weeks, final conc. 25 μM, incubation 16-18 h): 6 ± 7 CFU | Colony forming units (CFU) ([1]; aqueous P18 solution stored at 37° C. for 12 weeks, final conc. 25 μM, incubation 24 h): 5 ± 5 CFU | Colony forming units (CFU) ([1]; aqueous P18 solution stored at 37° C. for 12 weeks, final conc. 50 μM, incubation 16-18 h): 0 ± 0 CFU | Colony forming units (CFU) ([1]; aqueous P18 solution stored at 37° C. for 12 weeks, final conc. 50 μM, incubation 24 h): 1 ± 1 CFU | Effect compared with zinc pyrithione and climbazole at different contact times [2]: better properties than zinc pyrithione or climbazole | Colony forming units after the incubation time specified ([3]; 0.1%, 5 minutes): 205 ± 192 CFU | Colony forming units after the incubation time specified ([3]; 0.1%, 20 minutes): 48 ± 56 CFU | Colony forming units after the incubation time specified ([3]; 0.1%, 24 hours): 0 CFU | Colony forming units after the incubation time specified ([3]; 0.2%, 5 minutes): 56 ± 52 CFU | Colony forming units after the incubation time specified ([3]; 0.2%, 20 minutes): 5 ± 4 CFU | Colony forming units after the incubation time specified ([3]; 0.2%, 24 hours): 0 CFU | Colony forming units after the incubation time specified ([3]; 0.3%, 5 minutes): 18 ± 19 CFU | Colony forming units after the incubation time specified ([3]; 0.3%, 20 minutes): 1 ± 0 CFU | Colony forming units after the incubation time specified ([3]; 0.3%, 24 hours): 0 CFU
